Test results taken from EP4516309A1, “CRHR1 AGONISTS FOR USE IN THE TREATMENT OF SOCIAL ANXIETY DISORDERS” (Consejo Superior de Investigaciones Cientificas, priority 2023, dated 2025).

Target: T1, inhibitory DREADD (Homo sapiens, UniProt P08173, A203G/Y113C)
T1 construct: host or cells: ILA CRH+ neurons of CRH-Cre mice, Cre-dependent AAV2/8 transduction in vivo
T1 sequence (P08173 1-479 Y113C/A203G): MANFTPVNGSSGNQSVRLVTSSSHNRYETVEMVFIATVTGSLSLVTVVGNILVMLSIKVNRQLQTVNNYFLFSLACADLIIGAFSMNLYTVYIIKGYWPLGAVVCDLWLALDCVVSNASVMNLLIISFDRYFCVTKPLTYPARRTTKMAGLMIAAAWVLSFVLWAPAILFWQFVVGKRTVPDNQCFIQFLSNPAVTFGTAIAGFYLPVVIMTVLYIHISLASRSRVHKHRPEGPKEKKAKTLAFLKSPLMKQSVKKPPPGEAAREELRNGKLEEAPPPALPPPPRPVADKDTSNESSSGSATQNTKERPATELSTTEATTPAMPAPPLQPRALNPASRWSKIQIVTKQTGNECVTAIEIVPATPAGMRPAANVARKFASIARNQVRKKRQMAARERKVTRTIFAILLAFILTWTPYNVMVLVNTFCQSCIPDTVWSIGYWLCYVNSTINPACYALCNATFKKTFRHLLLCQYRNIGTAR
Assay: Social novelty preference test with chemogenetic silencing of ILA CRH cells
Type: in vivo, CRH-Cre mice
Details: CNO 5 mg/kg intra-peritoneally 30 min prior to the learning trial; iDREADD in ILA CRH cells
Experimental: Injection coordinates were the following (in mm from Bregma): AP: 1.65, ML: ±0.1, DV: -2.6. Injections were done bilaterally with 100 nl injected per site. […]
Social novelty preference test. […] Using automatic tracking of the test mice (ANY-Maze, Stoelting), the inventors quantified the time the test mice spent in the immediate area surrounding each cup - and therefore, interacting with each stimulus mice - during learning and recall. Using the interaction time from the recall trial, the inventors calculated a discrimination index for social novelty preference as the following: D! = (time with novel - time with familiar) / total interaction time. […] The inventors also calculated the total time spent interacting with stimulus mice during each trial in order to verify that the sociability drive was not affected. […]

Structure (SMILES): C[N+]1([O-])CCN(C2=Nc3cc(Cl)ccc3Nc3ccccc32)CC1 [CNO, clozapine N-oxide]
- discrimination index for social novelty preference: not different from zero
- exploration of novel and familiar mice during recall: explored the novel and familiar mice to the same extent
